Source: US20040266886A1, “Cosmetic and/or pharmaceutical superfatting preparations” (priority 2001, published 2004)
Read-outs that look alike come from different tables or passages of the source.

What was measured:
pig's epidermis [1] = assay: Dermatological compatibility: transepidermal water loss (TEWL), gravimetric; conditions: for TEWL [%-rel] = [treated/untreated * 100] − 100%: […] by weight fatty acid partial glyceride in 17% by weight Plantapon PS 10, pH 5.5, skin treated 30 minutes at 40° C., lower value = better compatibility
Procedure: (§1) Dermatological compatibility was evaluated by determining the transepidermal water loss (TEWL) in a pig's epidermis. To this end, defined pieces of skin were treated with the various test solutions for 30 minutes at 40° C. and the TEWL value was gravimetrically determined. The test solutions were mixtures of 17% by weight Plantapon® PS 10 (sodium lauryl ether sulfate and Lauryl Glycoside, Cognis Düsseldorf) with 1.5% by weight fatty acid partial glycerides (see Table 1) in preservative-containing water (WAS 10% by weight). The pH was adjusted to 5.5 with citric acid.

pig's epidermis [2] = conditions: pH 5.5
Procedure: as §1

Row | Molecule | TEWL [%-rel] = [treated/untreated * 100] − 100% (pig's epidermis [1]) [%-rel] | TEWL [%-rel] = [treated/untreated * 100] − 100% (pig's epidermis [2]) [%-rel] | also measured
1 | Glycerol monocaprylate (>90) [Example 2] |  |  | Transepidermal water loss / dermatological compatibility (in words) (pig's epidermis [1]; compared with mixtures of 65% by weight monoglyceride and 35% by weight diglyceride): very good compatibility
2 | Isostearic acid monoglyceride (>90) [Example 8] | 18.5 |  | 
3 | Lauric acid mono/diglyceride (65:35) [Example 3] |  | 20.5 | 

Continued, in another order:

Row | TEWL [%-rel] = [treated/untreated * 100] − 100% (pig's epidermis [1]) [%-rel] | TEWL [%-rel] = [treated/untreated * 100] − 100% (pig's epidermis [2]) [%-rel] | Molecule | also measured
4 | 10.5 |  | CCCCCCCCCCCC(=O)OCC(O)CO (centres unmarked) [Example 4, Lauric acid monoglyceride (>90)] | 
5 |  | 22.0 | Isostearic acid mono/diglyceride (65:35) [Example 7] | 
